Measurements reported in patent publication US8158596B2, “Materials and methods for FOXP3 tumor suppression” (The Regents of the University of Michigan, priority 2007, dated 2012).

How the values were obtained:
FOXP3 gene = FOXP3 gene induction in prostate cancer cell lines by methyltransferase inhibitor; format: cell-based, human; conditions: prostate cancer cell lines PC3 and Du145
Method: Using a quantitative pyrosequencing method for FOXP3 analysis, the level of methylation in both the intronic CpG motif and the CpG island was quantitated in the promoter region of FOXP3, using DNA from 17 cases of micro-dissected normal and cancerous tissues. […] Morover, the increase in methylation strongly correlate with reduction of FOXP3 expression. To verify the significance of DNA methylation, prostate cancer cell lines PC3 and Du145 were treated with a methyltransferase inhibitor (5-aza-2′-deoxycytidine (5-AZA)).

p38 = target: T1, p38 (Mus musculus, UniProt P47811); format: cell-based; conditions: 4T1 cells; anisomycin 1 μg/ml, PMA 0.5 μg/ml
T1 construct: Western blots of the cell lysates were obtained using antibodies specific for phospho-ATF2, phospho-p38; endogenous in cells; host or cells: 4T1 mouse mammary tumor cells
T1 sequence (P47811 whole entry): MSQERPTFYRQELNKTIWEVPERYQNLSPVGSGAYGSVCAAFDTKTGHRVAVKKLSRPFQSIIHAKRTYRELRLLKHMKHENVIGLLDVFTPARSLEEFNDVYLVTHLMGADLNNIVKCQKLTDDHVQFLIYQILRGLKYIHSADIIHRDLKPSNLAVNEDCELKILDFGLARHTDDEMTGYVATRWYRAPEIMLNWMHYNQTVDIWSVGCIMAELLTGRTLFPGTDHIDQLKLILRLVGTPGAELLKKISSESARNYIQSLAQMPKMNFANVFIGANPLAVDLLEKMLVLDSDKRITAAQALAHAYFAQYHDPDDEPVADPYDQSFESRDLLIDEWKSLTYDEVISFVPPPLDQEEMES
Method: (§1) 4T1 cells were treated with either vehicle control, anisomycin (1 μg/ml) or PMA (0.5 μg/ml). Western blots of the cell lysates were obtained using antibodies specific for phospho-ATF2, phospho-p38, ATF2, phospho-JNK1/2, phospho-c-Jun. Levels of beta-actin were used as loading controls.
Cells of a mammary tumor cell line were treated with anisomycin in conjunction with inhibitors of overlapping specificity. […] Western blots of the cell lysates were obtained using antibodies specific for phosphor-ATF2, phospho-p38, ATF2, phospho-JNK1/2, phospho-c-Jun. Levels of beta-actin were used as loading controls.

JNK = assay: Western blot of phospho-JNK1/2 in 4T1 cells; format: cell-based, mouse; conditions: for activation of JNK: anisomycin 1 μg/ml, PMA 0.5 μg/ml
Method: as §1, with “To identify the mechanism by which anisomycin induced FoxP3, the activation of ATF2, p38, and JNK upon treatment with either anisomycin or PMA was compared. 4T1” for “4T1”
(§2) Cells of a mammary tumor cell line were treated with anisomycin in conjunction with inhibitors of overlapping specificity. Specifically, 4T1 cells were treated with vehicle control, anisomycin (1 μg/ml) or PMA (0.5 μg/ml) in the presence or absence of inhibitors (2 μg/ml): SP10096 (SP), SB203580 (SB), and PD9786 (PD). Western blots of the cell lysates were obtained using antibodies specific for phosphor-ATF2, phospho-p38, ATF2, phospho-JNK1/2, phospho-c-Jun. Levels of beta-actin were used as loading controls.

c-Jun = assay: Western blot of phospho-c-Jun in 4T1 cells; format: cell-based, mouse; conditions: for activation of c-Jun: anisomycin 1 μg/ml, PMA 0.5 μg/ml
Method: as §1, with “To identify the mechanism by which anisomycin induced FoxP3, the activation of ATF2, p38, and JNK upon treatment with either anisomycin or PMA was compared. 4T1” for “4T1”
as §2
(§3) In order to study the mechanism of ATF2/c-Jun-mediated induction of FoxP3, chromatin immunoprecipitation (ChIP) was carried out as described in (Im et al., Nat Med 5: 412-417 (1999)) to identify an anisomycin-inducible binding site of the FoxP3 locus. Briefly, 4TI cells were treated with vehicle or anisomycin for 2 hours. The cells were sonicated and the chromatin was fixed with 1% paraformaldehyde. Anti-phospho-c-Jun or anti-phosphor-ATF2 antibodies or control rabbit IgG were used to precipitate chromatin associated with these proteins. The amounts of the specific DNA fragments were quantitated by real-time PCR and normalized against the genomic DNA preparation from the same cells. […] Untreated 4T1 cells barely had detectable amounts of phospho-ATF2 and phospho-c-Jun in the nuclei.

ATF2 = assay: Western blot of phospho-ATF2 in 4T1 cells; format: cell-based, mouse; conditions: for activation of ATF2: anisomycin 1 μg/ml, PMA 0.5 μg/ml
Method: as §1, with “To identify the mechanism by which anisomycin induced FoxP3, the activation of ATF2, p38, and JNK upon treatment with either anisomycin or PMA was compared. 4T1” for “4T1”
as §2, §3

FoxP3 [1] = assay: Anisomycin-induced FoxP3 induction in 4T1 cells with kinase inhibitors; format: cell-based, mouse; conditions: inhibitor 2 μg/ml with anisomycin 1 μg/ml
TSA tumor cells = assay: TSA tumor in mammary fat pads of BALb/c mice; format: in vivo; conditions: intraperitoneal, every 3 days for 8 times, I mg/mouse
Method: To test whether induction of FoxP3 by ATF2-FoxP3 pathway can be explored for breast cancer therapy, cells (5×10^5) of the TSA cell line were injected into the mammary fat pads of BALb/c mice. Five days later, when the cancer cells established locally, the mice were intraperitoneally treated with vehicle control or anisomycin every 3 days for 8 times at a dose of I mg/mouse.

TSA cells = assay: Apoptosis: activated caspase 3 staining and DNA content; format: cell-based, mouse
From the text: Cells were stained for activated Capsase 3 and also tested for DNA contents. The % of gated cells was apoptotic based on their sub-2C DNA contents.

FOXP3-encoding mRNA = assay: Induction of FOXP3-encoding mRNA in cancer cell lines (RT-PCR); format: cell-based; conditions: thymoma BW5147, thymic epithelial cell 61.7, breast cancer TSA, treated 14 hr to 2 days
Method: A method was developed to induce FOXP3 expression in cancer cells by activating JNK, P38 and ATF2. Briefly, breast cancer and thymoma cell lines were treated with activators of JNK, P38 and ATF2, such a emetine and anisomycin for 14 hr to 2 days. The cells were analyzed for expression of FOXP3-encoding mRNA by RT-PCR.

FOXP3 transcripts = FOXP3 transcripts in primary mammary epithelial cultures of ATF2+/+ and ATF2-/- mice; format: cell-based, mouse
Method: ATF2± mice were obtained from the frozen embryo bank of the Jackson Laboratories and were crossed to produce ATF2+/+ and the ATF2−/− mice. […] Two independent primary cultures were obtained from two ATF2−/− females. Specifically, mouse mammary fat pads were removed from 6 to 8-week-old virgin female mice and minced into small pieces. After collagenase digestion at 37° C. in a shaking incubator in DMEM medium supplemented with 5% fetal calf serum (FBS), cells were sieved through a 70-μm cell strainer (BD Falcon) to obtain a single cell suspension. The cells were cultured in DMEM medium supplemented with 10% FBS and 10 ng/ml epithelial growth factor (EGF). At day 3 of culture, fibroblast cells were removed by a short digestion with 0.05% trypsin-EDTA as less adherent cells.
The primary cultures were then assayed for expressioin of FOXP3 protein by Western blotting cell lysates of the cultures with antibodies specific for FOXP3. The primary transcripts also were assayed for expression of FOXP3 by real-time PCR.

[2] = test system: P10 probe (AP1 site of FoxP3 enhancer); assay: Electrophoretic mobility shift of P10 AP1 probe with 4T1 nuclear extracts; format: cell-based, mouse; conditions: nuclear extracts of anisomycin-treated 4T1 cells
From the text: Sequencing comparison identified a typical AP1 site within the P10. […] The sequence of nonmutated probe (P10) is […] (bold letters for core AP1 sequence; SEQ ID NO: 173), that for P10-Mt1 is […] (bold letter indicate mutations; SEQ ID NO: 174), while that for P10-Mt2 is […] (SEQ ID NO: 175).

[3] = test system: FoxP3 locus P2 and P10 sites; assay: ChIP of phospho-ATF2/phospho-c-Jun binding at the FoxP3 locus in 4T1 cells; format: cell-based, mouse
Method: as §3
In order to identify the FoxP3 sequence associated with p-ATF2 and p-c-Jun, the 5′ sequence of the FoxP3 gene was analyzed and 14 potential AP1 and CREB sites were identified. […]

[4] = test system: breast cancer cell lines MCF-7, BT474, TSA; assay: Killing of breast cancer cell lines / MTT viability assay; format: cell-based, human, mouse
Method: Given the impact of FOXP3 activity on tumor growth and cell death, these compounds were also tested for their ability to kill cancer cells. […] The IC50 ranges between 30-100 ng/ml.
To determine whether anisomycin treatment causes apoptosis of breast cancer cells, the cytotoxic effect of anisomycin on several of breast cancer cell lines was measured by MTT assay. 10^4 cells/well of mouse cell line (TSA) or human breast cancer cell lines (TB474 or MCF7) were cultured in the presence of 25, 50, 100, 200, 400, or 800 ng/ml anisomycin for 48 hours. The amounts of viable cells were determined by MTT assay, with viability of the untreated cells defined as 100%. Both mouse (TSA) and human breast cancer cell lines (BT474, MCF-7) were highly susceptible to anisomycin, with an IC50 between 50-100 […].

MYC = assay: FOXP3 silencing in HPEC: MYC transcript; format: cell-based, human; conditions: one week after infection
Method: (§4) To determine whether the endogenous FOXP3 in prostate epithelial cell lines is responsible for MYC repression, the FOXP3 locus was silenced with a lentiviral vector encoding shRNA for FOXP3. Human Prostate Epithelial Cells (HPEC) were purchased from Lonza Group Ltd (Switzerland) and were cultured with medium. An early passage of the HPEC were infected with lentivirus expressing either control shRNA or FOXP3 shRNA vector as described in Zuo et al., 2007, supra. Uninfected cells were removed by drug selection. At one week after infection, the levels of FOXP3 or MYC mRNA were quantitated by RT-PCR. Western blotting was also carried out using anti-FOXP3 or -MYC antibodies. Beta actin was used as a loading control.

FOXP3 [5] = assay: FOXP3 silencing in HPEC: FOXP3 mRNA; format: cell-based, human; conditions: one week after infection
Method: as §4

[6] = inhibitor 2 μg/ml with anisomycin 1 μg/ml

Nc1ncn([C@H]2C[C@H](O)[C@@H](CO)O2)c(=O)n1 [5-AZA, 5-aza-2′-deoxycytidine]
induction of the FOXP3 gene (FOXP3 gene): two-fold

CCCCCCCCCCCCCC(=O)O[C@@H]1[C@@H](C)[C@@]2(O)[C@@H](C=C(CO)C[C@]3(O)C(=O)C(C)=C[C@@H]23)[C@@H]2C(C)(C)[C@]12OC(C)=O [PMA]
activation of p38 (p38): activated
activation of JNK (JNK): failed to activate
activation of c-Jun (c-Jun): failed to activate
activation of ATF2 (ATF2): activated

C[S+]([O-])c1ccc(-c2nc(-c3ccncc3)c(-c3ccc(F)cc3)[nH]2)cc1 (stereo not shown) [SB]
inhibition of anisomycin-induced FoxP3 induction (FoxP3 [1]): reduced, but did not eliminate
inhibition of JNK activation by anisomycin (JNK; [6]): only partially
inhibition of ATF2 activation by anisomycin (ATF2; [6]): only partially

COc1ccc(C[C@H]2NC[C@H](O)[C@H]2OC(C)=O)cc1 [anisomycin]
side effects (TSA tumor cells): did not give obvious side effects
growth of TSA tumor cells in syngeneic mammary pad (TSA tumor cells; from day 5): nearly completely abrogated
active caspase 3 in cells with less than 2C DNA contents (TSA cells): increased expression of active caspase 3
activation of p38 (p38): activated
activation of JNK (JNK): activation
activation of c-Jun (c-Jun): activation
phospho-c-Jun in the nuclear fraction (c-Jun; anisomycin 2 hours): major increase
induction of FOXP3-encoding mRNA (FOXP3-encoding mRNA): strong induction
activation of ATF2 (ATF2): activated
phospho-ATF2 in the nuclear fraction (ATF2; anisomycin 2 hours): major increase
FOXP3 transcripts in ATF2+/+ epithelial cultures (FOXP3 transcripts; ATF2+/+ primary mammary epithelial cells): further induced
FoxP3 transcripts in ATF2-/- cells (FOXP3 transcripts; ATF2-/- primary mammary epithelial cells): completely refractory
binding of nuclear extracts to nonmutated P10 probe (EMSA) [2]: strong interaction
inducibility of ATF2/cJun association with P2 site (ChIP) ([3]; P2, 4.8 kb 5′ of exon 1): not inducible
enhancement of ATF2/cJun binding to P10 site (ChIP) ([3]; P10, 4.2 kb 3′ of exon 1): more than 2 fold
IC50 (cancer cell killing) ([4]; 48 hours): 0.03 to 0.1 mg/L
killing of cancer cells ([4]; within 48 hours): killed a substantial percentage of cancer cells

CC[C@H]1CN2CCc3cc(OC)c(OC)cc3[C@@H]2C[C@@H]1C[C@H]1NCCc2cc(OC)c(OC)cc21 [emetine]
induction of FOXP3-encoding mRNA (FOXP3-encoding mRNA): strong induction

FoxP3 shRNA: lentiviral shRNA specific for FoxP3 used in mouse TSA cells (SEQ ID NO: 168) (AAGCCATGGCAATAGTTCCTT)
level of MYC transcript (MYC): significantly elevated
expression of FOXP3 mRNA (FOXP3 [5]): major reduction
